Source: publication PMC6770473, “Proximity ligation assay to study protein–protein interactions of proteins on two different cells” (Biotechniques, 2018)
“Also recorded” adds a separate entry of the source.

B1: CD2: T-cell surface adhesion protein, binding partner of CD58 (protein)
chain: KEITNALETWGALGQDINLDIPSFQMSDDIDDIKWEKTSDKKKIAQFRKEKETFKEKDTYKLFKNGTLKIKHLKTDDQDIYKVSIYDTKGKNVLEKIFDLKIQERVSKPKISWTCINTTLTCEVMNGTDPELNLYQDGKHLKLSQRVITHKWTTSLSAKFKCTAGNKVSKESSVEPVSCPEKGLDIYLIIGICGGGSLLMVFVALLVFYITKRKKQRSRRNDEELETRAHRVATEERGRKPHQIPASTPQNPATSQHPPPPPGHRSQAPSHRPPPPGHRVQHQPQKRPPAPSGTQVHQQKGPPLPRPRVQPKPPHGAAENSLSPSSN

Legend:
[1] = test system: CD58 on the cell surface of HFLS-RA cells; test: Binding of SFTI-a BODIPY conjugate to HFLS-RA cells (fluorescence microscopy); format: cell-based, human; conditions: green fluorescence of BODIPY, Mg+ green filter (excitation 507, emission 531), 60x, concentration not given
Procedure: Synthesis of cyclic peptide SFTI-a, Cyclo(CKASAPPSCYDGDD), was carried out in three major steps: 1) Linear sequence synthesis with an automatic peptide synthesizer (Protein Technologies, Inc., AZ, USA); 2) head-to-tail cyclization; and 3) disulfide bond formation. For fluorescent labeling of peptide SFTI-a, Lys in the peptide sequence was replaced with Lys containing an azide side chain. The azide side chain was used to conjugate fluorescent label 4,4-difluoro-4-bora-3a,4a-diaza-s-indacene (BODIPY), resulting in the conjugate Cyclo(CK-(BODIPY)-ASAPPSCYDGDD). The detailed procedure for synthesis of the peptide is described in our previous work. Peptides SFTI-a and SFTI-a with lysine azide (N3) and fluorescence-labeled SFTI-a were purified by preparative HPLC (Waters Corp., MA, USA) using acetonitrile and water containing 0.1% TFA. Molecular weights of the synthesized peptide and the conjugate were confirmed by mass spectrometry. BODIPY was obtained from Dr Vicente, Department of Chemistry, Louisiana State University, LA, USA.
(§1) • Both T cells and HFLS-RA cells were grown to 70% confluency. • Approximately 20,000 Jurkat cells were added to each well, and the chamber slides were incubated for 30 min at 37°C with 5% CO2. • Approximately 10,000 HFLS-RA cells were treated with different concentrations of SFTI-a peptide separately for 2 h at 4°C and added over Jurkat cells that were previously coated onto the well chamber slides. • The slides were incubated for 48 h at 37°C with 5% CO2.
The microscopic visualization was carried out on an Olympus Fluoview FV10i confocal microscope. DAPI (excitation 359, emission 461) and Texas Red (excitation 595, emission 612) filters were used for detection purposes at 60x zoom. For SFTI-a BODIPY conjugate, a Mg+ green (excitation 507, emission 531) filter was used. Different images were taken from each well containing different concentrations of SFTI-a and cells only. All images were taken in a single plane and at 60x magnification.

CD2–CD58 interaction [2] = test: Proximity ligation assay (PLA), Jurkat T cells / HFLS-RA cells co-culture; format: cell-based, human; conditions: for PPI inhibition by BODIPY conjugate (red fluorescence): BODIPY conjugate of SFTI-a, concentration not printed, compared to control without any peptide; for reduction in number of red dots: compared with control, p < 0.001; for PPI inhibition, number of red dots (ImageJ): vs untreated wells, p < 0.0001 (SAS, GLM)
Procedure: as §1
• The medium was gently removed from the corners of the wells. • Enough chilled methanol to cover the surface was added to each well for fixing the cells. • After incubating the slides for 15 min at −20°C, the methanol was removed, and PBS was used to hydrate the slides. • The slides were washed once more with PBS. • Two drops of blocking solution was added to each well, and they were incubated for 90 min at room temperature in a moist chamber.
• The blocking solution was removed, and the slides were washed gently with PBS. • The CD58 and CD2 (Santa Cruz Biotechnology) primary antibodies were used at a dilution of […] by diluting with antibody diluent solution provided in kit (2 μl [CD58 Ab] + 2 μl [CD2 Ab] + 196 μl antibody diluent solution per well). • After addition of primary antibody solution, the slides were incubated overnight at 4°C in a moist chamber with gentle shaking.
• The primary antibody solution was removed, and each well was washed very gently with 100 μl of PBS. • The probe solution was prepared using 1:1:4 ratio of positive probe:negative probe:antibody diluent solution, respectively. • After removing PBS, approximately 80 μl of probe solution was added to each well, which were incubated at 37°C for 1 h in a moist chamber.
• The probe solution was discarded, and all wells were washed twice with 100 μl of wash buffer A. • Ligase solution was prepared by mixing together 16 μl of ligation solution + 2 μl of ligase + 62 μl of high purified water. • 80 μl of this freshly prepared ligase solution was added gently to each well, which were incubated at 37°C for 30 min in a moist chamber.
• All procedures from this step forward were carried out in a dark (light-protected) environment. • After removing the ligase solution, the wells were washed gently twice with wash buffer A. • Amplification/polymerase solution was prepared by mixing together 1 μl polymerase + 16 μl amplification (red) solution + 63 μl purified water. • 80 μl of the above solution was added to each well in the dark, and the plates were incubated in a 37°C moist chamber in the dark for 100 min.
• Amplification/polymerase solution was removed from each well, and they were washed gently twice with 120 μl of wash buffer B. • 0.01x wash buffer B (in phosphate-buffered saline [PBS]) was prepared, and each well was washed with this solution. • The well on slides were removed (wells are removed after all the washing step to prepare the slide for microscopic imaging). • Keeping the slide surface slightly wet with 0.01x wash buffer B, a small amount of mounting medium with DAPI solution was added to the slide. • Coverslips were placed over the slides, and images were obtained by using an Olympus Fluoview 1.0 confocal microscope with DAPI and Texas Red filters.
Wash buffers A and B were provided in the kit. The composition of the buffers is not disclosed by the vendor. A bio-protocol by Lin et al. provides the composition of Duolink in situ buffers A and B. The incubation time of 48 h was established by carrying out PLA at 24- and 48-h times.
Control experiments were conducted with HFLS-RA cells and T cells without addition of primary antibodies to CD2 and CD58 but with addition of secondary antibodies and PLA probes. Experiments were performed as described in steps 1–7 above.
Experiments with HFLS-RA cells and T cells were carried out as described above by adding primary and secondary antibodies only to CD58 and with PLA probes. […]

CD2–CD58 interaction [3] = conditions: cited from earlier work
Description: (§2) In almost all physiological processes, the medium for communication between two cells is facilitated by the interaction of proteins. The up- or down-regulation of proteins and the deregulated interaction of these proteins usually lead to disease conditions. Rational drug designs targeting these protein–protein interactions (PPI) have gained much popularity in the past decade. […] Many proteins interact at the cell surface to send signals inside the cell from the extracellular region, and PPI on the cell surface are targ ...

[4] = test system: cell adhesion in the immune response; conditions: cell-based in vitro and ex vivo assays; cited from earlier work
Description: as §2

CD58 protein = conditions: cited from earlier work
Description: as §2

CD58 adhesion domain = conditions: relatively weak but highly specific interaction; background statement, reference printed only at the preceding sentence; read-out: Kd of CD2–CD58 interaction; cited from earlier work
Description: as §2

[5] = listed as BODIPY conjugate of SFTI-a

Row | Molecule | binding to CD58 on HFLS-RA cell surface [1] | binding to CD58 on HFLS-RA cell surface [1, 5] | PPI inhibition by BODIPY conjugate (red fluorescence) (CD2–CD58 interaction [2]) | PPI inhibition by BODIPY conjugate (red fluorescence) (CD2–CD58 interaction [2]; [5]) | inhibition of CD2–CD58 interaction (CD2–CD58 interaction [3]) | inhibition of cell adhesion in the immune response, suppression of T-cell immune response [4] | binding to CD58 (CD58 protein) | reduction in number of red dots (CD2–CD58 interaction [2]; 50 nM SFTI-a) | reduction in number of red dots (CD2–CD58 interaction [2]; 250 nM SFTI-a) | PPI inhibition, number of red dots (ImageJ) (CD2–CD58 interaction [2]; 10 μM SFTI-a) | PPI inhibition, number of red dots (ImageJ) (CD2–CD58 interaction [2]; 50 μM SFTI-a) | decrease in red dots (CD2–CD58 PPI inhibition) (CD2–CD58 interaction [2]; 100 μM SFTI-a, HFLS-RA cells treated 2 h at 4°C, added over Jurkat cells, 48 h at 37°C, confocal microscopy 60x, vs cells without peptide) | PPI inhibition, number of red dots (ImageJ) (CD2–CD58 interaction [2]; 100 μM SFTI-a) | PPI inhibition at different concentrations (dose dependence) (CD2–CD58 interaction [2]; different concentrations of SFTI-a (50 nM, 250 nM, 1 μM, 10 μM, 50 μM, 100 μM), HFLS-RA cells treated 2 h at 4°C, co-culture with Jurkat cells 48 h at 37°C, red dots) | Kd (CD58 adhesion domain)
1 | Cyclo(CK-(BODIPY)-ASAPPSCYDGDD) (bicyclic or more) [SFTI-a conjugate, fluorescently labeled peptide with BODIPY attachment via azide side chain of Lys] | bound to the cell surface of HFLS-RA cells as shown by green fluorescence of BODIPY | green fluorescence on HFLS-RA cells due to binding of a conjugate of SFTI-a to CD58 on cells | inhibit the interaction between Jurkat cells and HFLS-RA cells | able to inhibit PPI as shown by a decrease in red fluorescence compared to control | – | – | – | – | – | – | – | – | – | – | –
2 | Cyclo(CKASAPPSCYDGDD) (bicyclic or more) [SFTI-a] | bind to CD58 on the cell surface | – | – | – | inhibits CD2–CD58 interaction | potent compound for inhibiting cell adhesion in the immune response | binds to the CD58 protein | significant reduction in a number of red dots | significant reduction in a number of red dots | significant in comparison with that of untreated wells | significant in comparison with that of untreated wells | significant decrease in red dots; also recorded: decrease in the number of red dots | significant in comparison with that of untreated wells | significant decrease in bright red spots; also recorded: dose-dependent inhibition of the interaction between CD2 and CD58 proteins | –
3 | B1 | – | – | – | – | – | – | – | – | – | – | – | – | – | – | 1 to 10 µM
